Test results as given in patent publication US20030017186A1, “Carboxylic acid fluorides as pesticides” (priority 1999, published 2003).

Columns and labels:
[1] = system: House longhorn beetle (Hylotrupes bajulus) larvae; assay: Fumigation test in glass vessel, house longhorn beetle larvae in wood blocks; format: in vivo; conditions: HYLOBA larvae in wood blocks
[2] = system: Common furniture beetle (Anobium punctatum) larvae; assay: Fumigation test in glass vessel, common furniture beetle larvae in wood blocks; format: in vivo; conditions: ANOBPU larvae in wood blocks
[3] = system: House longhorn beetle (Hylotrupes bajulus); assay: Fumigation test in glass vessel, house longhorn beetles; format: in vivo
[4] = system: wood pests (house longhorn beetle, common furniture beetle); assay: Fumigation test, wood pests; format: in vivo, Hylotrupes bajulus, Anobium punctatum
From the text: (§1) The test organisms, separated by species, were placed into a glass vessel measuring 30 cm×30 cm×60 cm, which was sealed with a glass lid so as to be airtight. The adults and the larvae of the mealworm beetle (Tenebrio molitor) and the broad-horned flour beetle (Gnathocerus cornutus) were placed into small glass vessels approximately 5 cm in diameter, which were closed with a gauze lid and in which they could freely move about. The larvae of the rice weevil had burrowed into seeds of grain. The wood pest larvae were inserted into small blocks of wood measuring 5 cm×2.5 cm×2 cm. The openings were sealed with wads of cotton wool. Only one each of the larvae of the house longhorn beetle (Hylotrupes bajulus) was inserted into a piece of wood, while 6-8 larvae of the common furniture beetle (Anobium punctatum) were inserted into each piece of wood.
(§2) The respective gas was then introduced into the fumigation vessel through a gas line from a gas tank that contained the specified amount of gas. After a defined time period, the fumigation vessel was purged with compressed air. The discharged gas was purified by an attached gas scrubber.
(§3) The beetles were observed until they died. This point was recorded for each species. The larvae of the wood pests as well as the larvae of the rice weevil (Sitophilus oryzae) had to be picked out of the wood or the grain to check their condition. If any of the animals were still alive, the wooden test blocks remaining in the vessel were fumigated again and were reexamined after the corresponding time span had elapsed. The same number of animals in the untreated control was also checked at each point.
(§4) The vitality of the animals was checked at certain time intervals. The beetles could be observed through the fumigation vessel. This was also true for the larvae of the mealworm beetle and the broad-horned flour beetle. The wooden test blocks of the wood pest larvae were opened with hammer and chisel. Tweezers were used to pull the rice weevil larvae out of the grain seeds. The exact time intervals and the number of the evaluated pests were documented in the test results.

termites = assay: Termite control fumigation test (overall statements); format: in vivo, Cryptotermes brevis, Incisitermes tabogae; conditions: Example 6
From the text: (§5) c) American drywood termites (Cryptotermes brevis)=CRYPBR, and Incisitermes tabogae=INCITA
as §1, §2, §3
as §4, with “The wooden test blocks of the wood pest larvae were opened with hammer and chisel. Tweezers were used to pull the rice weevil larvae out of the grain seeds.” left out

[5] = system: Rice weevil (Sitophilus oryzae); assay: Fumigation test in glass vessel, rice weevils; format: in vivo; conditions: SITTOR beetles
[6] = system: American drywood termites (Cryptotermes brevis); assay: Termite control fumigation test, Cryptotermes brevis; format: in vivo; conditions: Example 6
From the text: as §5, §1, §2, §3, §4

[7] = system: Broad-horned flour beetle (Gnathocerus cornutus) larvae; assay: Fumigation test in glass vessel, broad-horned flour beetle larvae; format: in vivo; conditions: GNATCO larvae
Incisitermes tabogae = assay: Termite control fumigation test, Incisitermes tabogae; format: in vivo; conditions: Example 6
From the text: as §5, §1, §2, §3, §4

[8] = system: Saw-toothed grain beetle (Oryzaephilus surinamensis); assay: Fumigation test in glass vessel, saw-toothed grain beetles; format: in vivo; conditions: ORYZSA beetles
[9] = system: Rice weevil (Sitophilus oryzae) larvae; assay: Fumigation test in glass vessel, rice weevil larvae in grain seeds; format: in vivo; conditions: SITTOR larvae in grain seeds
From the text: a2) Rice weevil (Sitophilus oryzae)=SITTOR
as §1, §2, §3, §4

[10] = Example 5, ACF 50.6/48.2/51.4 g/m^3, SF 47.4/44.6/41 g/m^3 (1st/2nd/3rd fumigation), 23/23/22° C.
[11] = Example 7, ACF 53.0/54.6/0 g/m^3, second gas (SF) 43.6/41.4/39.8 g/m^3 (1st/2nd/3rd fumigation), 20.0/20.2/19.8 C.
[12] = HYLOBA beetles, Example 5, ACF 50.6/48.2/51.4 g/m^3, SF 47.4/44.6/41 g/m^3 (1st/2nd/3rd fumigation), 23/23/22° C.
[13] = HYLOBA beetles, Example 7, ACF 53.0/54.6/0 g/m^3, second gas (SF) 43.6/41.4/39.8 g/m^3 (1st/2nd/3rd fumigation), 20.0/20.2/19.8 C.
[14] = Example 4, gas 36.5 g/m^3, 19.3° C., 54% rel. air humidity
[15] = CRYPBR termites, ACF 50.0/53.8 g/m^3, SF 47.8/44.8 g/m^3 (1st/2nd fumigation), 23.7/24° C.
[16] = INCITA termites, ACF 50.0/53.8 g/m^3, SF 47.8/44.8 g/m^3 (1st/2nd fumigation), 23.7/24° C.

SMILES: CC(=O)F [ACF, acetyl fluoride]
- Number alive, 1 hr. after Start of Fumigation [1, 10]: 0
- Number alive, 3 hrs. after Start of Fumigation [1, 10]: 1
- Number alive, 6 hrs after Start of Fumigation [1, 10]: 0
- Number dead, 1 hr. after Start of Fumigation [1, 10]: 4
- Number dead, 3 hrs. after Start of Fumigation [1, 10]: 2
- Number dead, 6 hrs after Start of Fumigation [1, 10]: 7
- Number alive, 1 hr. after 1st Fumigation [1, 11]: 2
- Number alive, 3 hrs. after 1st Fumigation [1, 11]: 0
- Number dead, 1 hr. after 1st Fumigation [1, 11]: 3
- Number dead, 3 hrs. after 1st Fumigation [1, 11]: 10
- Number alive, 1 hr. after Start of Fumigation [2, 10]: 1
- Number alive, 3 hrs. after Start of Fumigation [2, 10]: 2
- Number alive, 6 hrs after Start of Fumigation [2, 10]: 0
- Number dead, 1 hr. after Start of Fumigation [2, 10]: 3
- Number dead, 3 hrs. after Start of Fumigation [2, 10]: 2
- Number dead, 6 hrs after Start of Fumigation [2, 10]: 8
- Number alive, 1 hr. after 1st Fumigation [2, 11]: 5
- Number alive, 3 hrs. after 1st Fumigation [2, 11]: 2
- Number alive, 6 hrs after 1st Fumigation [2, 11]: 4
- Number dead, 1 hr. after 1st Fumigation [2, 11]: 1
- Number dead, 3 hrs. after 1st Fumigation [2, 11]: 4
- Number dead, 6 hrs after 1st Fumigation [2, 11]: 2
- Time after which the house longhorn beetles were dead ([3]; Example 4, 3 house longhorn beetles, gas 36.5 g/m^3, 19.3° C.): 15 min
- Number alive, 30 min. after Start of Fumigation [3, 12]: 0
- Number dead, 30 min. after Start of Fumigation [3, 12]: 4
- Number alive, 30 min. after 1st Fumigation [3, 13]: 3
- Number alive, 1 hr. after 1st Fumigation [3, 13]: 0
- Number dead, 30 min. after 1st Fumigation [3, 13]: 3
- Number dead, 1 hr. after 1st Fumigation [3, 13]: 6
- Effectiveness against wood pests ([4]; Conclusion, especially at temperatures in excess of 20° C.): very effective
- Condition of the larvae of the wood pests after 24 hours ([4]; Example 4, house longhorn beetle larvae and 2 common furniture beetle larvae, gas 36.5 g/m^3, 19.3° C., evaluated only after 24 hours): dead
- Effectiveness against termites in comparison test (termites; compared with SO2F2): as effective as SO2F2
- Speed of effect on termites in wood (termites; compared with sulfuryl fluoride, penetrates wood more quickly): slightly faster effect
- Number alive, 1 hr. after Start of Fumigation [5, 14]: 0
- Number dead, 1 hr. after Start of Fumigation [5, 14]: 25
- Number alive, 30 min. after Start of Fumigation [5, 10]: 0
- Number dead, 30 min. after Start of Fumigation [5, 10]: 15
- Number alive, 30 min. after 1st Fumigation [5, 11]: 0
- Number dead, 30 min. after 1st Fumigation [5, 11]: 15
- Number alive, 30 min. after 1st Fumigation [6, 15]: 180
- Number alive, 1 hr. after 1st Fumigation [6, 15]: 60
- Number alive, 3 hrs. after 1st Fumigation [6, 15]: 0
- Number dead, 30 min. after 1st Fumigation [6, 15]: 0
- Number dead, 1 hr. after 1st Fumigation [6, 15]: 0
- Number dead, 3 hrs. after 1st Fumigation [6, 15]: 120
- Effectiveness against Cryptotermes [6]: particularly effective
- Condition of Cryptotermes on reexamination after 24-hour observation period ([6]; animals fumigated 1 hour, then 24-hour observation): dead
- Number alive, 1 hr. after Start of Fumigation [7, 14]: 0
- Number dead, 1 hr. after Start of Fumigation [7, 14]: 25
- Number alive, 30 min. after Start of Fumigation [7, 10]: 0
- Number dead, 30 min. after Start of Fumigation [7, 10]: 15
- Number alive, 30 min. after 1st Fumigation [7, 11]: 0
- Number dead, 30 min. after 1st Fumigation [7, 11]: 15
- Number of Incisitermes still alive on reexamination after 24-hour observation period (Incisitermes tabogae; out of 30 animals fumigated 1 hour, then 24-hour observation): 3
- Number alive, 30 min. after 1st Fumigation (Incisitermes tabogae; [16]): 90
- Number alive, 1 hr. after 1st Fumigation (Incisitermes tabogae; [16]): 30
- Number alive, 3 hrs. after 1st Fumigation (Incisitermes tabogae; [16]): 0
- Number dead, 30 min. after 1st Fumigation (Incisitermes tabogae; [16]): 0
- Number dead, 1 hr. after 1st Fumigation (Incisitermes tabogae; [16]): 0
- Number dead, 3 hrs. after 1st Fumigation (Incisitermes tabogae; [16]): 60
- Number alive, 1 hr. after Start of Fumigation [8, 14]: 0
- Number dead, 1 hr. after Start of Fumigation [8, 14]: 25
- Number alive, 30 min. after Start of Fumigation [8, 10]: 0
- Number dead, 30 min. after Start of Fumigation [8, 10]: 15
- Number alive, 30 min. after 1st Fumigation [8, 11]: 0
- Number dead, 30 min. after 1st Fumigation [8, 11]: 15
- Number alive, 24 hrs. after Start of Fumigation [9, 14]: 0
- Number dead, 24 hrs. after Start of Fumigation [9, 14]: 25
- Number alive, 1 hr. after Start of Fumigation [9, 10]: 0
- Number dead, 1 hr. after Start of Fumigation [9, 10]: 15
